The target of data set [1] is T1, hsHexB (Homo sapiens, UniProt P07686).
T1 construct: His6; made in house; host or cells: Pichia pastoris GS115 (pPIC9 vector)
T1 sequence (P07686 122-556): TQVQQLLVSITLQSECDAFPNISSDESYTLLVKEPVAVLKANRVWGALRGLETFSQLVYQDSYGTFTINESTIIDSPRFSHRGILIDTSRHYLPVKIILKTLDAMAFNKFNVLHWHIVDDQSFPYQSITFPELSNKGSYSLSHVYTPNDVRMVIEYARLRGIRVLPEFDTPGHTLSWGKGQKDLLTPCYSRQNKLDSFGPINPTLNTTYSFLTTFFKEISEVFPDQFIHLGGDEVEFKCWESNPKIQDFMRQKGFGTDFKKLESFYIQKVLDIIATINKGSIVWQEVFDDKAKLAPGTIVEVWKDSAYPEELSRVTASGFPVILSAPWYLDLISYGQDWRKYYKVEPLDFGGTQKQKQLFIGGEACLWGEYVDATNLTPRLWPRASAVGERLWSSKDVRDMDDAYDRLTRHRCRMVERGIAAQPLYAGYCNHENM
Briefly: Inhibitory potency assay, end-point, 4-MU-GlcNAc substrate, pH 4.0. The data set is classed as biochemical. As to conditions: for Inhibition potency against hsHexB (in words): each compound at 20 µM, Figure 3; for Ki: 4-MU-GlcNAc, pH 4.0, 30 °C, 30 min, read-out: Ki against hsHexB. On the procedure: (§1) Gene encoding hsHexB, which was engineered to contain a His6-tagged fusion protein, was cloned into pPIC9 expression vector (Invitrogen, Carlsbad, CA, USA), and subsequently transformed into Pichia pastoris GS115 (Invitrogen, Carlsbad, CA, USA) by electroporation. The cells were first cultured in BMGY broth (1% yeast extract, 1% glycerol, 2% peptone, 0.2% biotin, 1.34% yeast nitrogen, 0.1 M potassium phosphate, pH 6.0) at 30 °C. Methanol was added into the culture daily at a final concentration of 1% (v/v). When OD600 value reached 2.0 (after ∼120 h), the cells were harvested by centrifugation at 6000g for 10 min. While the pellet was resuspended in BMMY broth (1% yeast extract, 1% methanol, 2% peptone, 0.2% biotin, 1.34% yeast nitrogen, 0.1 M potassium phosphate, pH 6.0), the supernatant was subjected to ammonium sulfate precipitation (75% saturation) at 4 °C, in which the precipitate was further resuspended in distilled water and then desalted in buffer A (20 mM sodium phosphate, 0.5 M sodium chloride, pH 7.4). Subsequently, the resuspension solution was centrifuged at 17,000g for 30 min at 4 °C and passed through a 0.2-µm filter prior to loading onto a 5-ml HisTrap FF affinity column (GE Healthcare, Chicago, IL, USA), which was pre-equilibrated with buffer A. To remove nonspecific binding proteins, the column was sequentially washed with buffer A-containing 20 mM imidazole and buffer A-containing 50 mM imidazole. Finally, the target protein was eluted with buffer B (20 mM sodium phosphate, 0.5 M sodium chloride, 150 mM imidazole, pH 7.4). Purity of the protein was further analyzed by SDS–PAGE. hOGA was overexpressed in Escherichia coli BL21(DE3) and purified as described previously.
(§2) Potencies of hsHexB and hOGA were assayed by end-point experiment, in which 4-methylumbelliferyl N-acetyl-β-D-glucosaminide (4-MU-GlcNAc; Sigma, St. Louis, MO, USA) was used as a substrate. Various concentrations of inhibitors and substrates (50 µM, 25 µM, and 12.5 µM) were mixed with Britton-Robinson buffer (hsHexB, pH 4.0; hOGA, pH 6.0), dimethylsulfoxide at a final concentration of 2%, enzyme, and 40 µM 4-MU-GlcNAc in a reaction of 100-µl final volume, and incubated at 30 °C for 30 min. Then, the enzymatic reaction was terminated by the addition of 100 µl of 0.5 M sodium carbonate solution. The fluorescence of the released 4-methylumbelliferone was quantified (excitation at 366 nm, emission at 445 nm) on a Varioskan Flash microplate reader (Thermo Fisher Scientific, Waltham, MA, USA). To determine the inhibition constant (Ki), the reciprocal plots of 1/velocity versus inhibitor were constructed. Data analysis was performed using Graph Pad Prism software (Graph Pad Software Inc., San Diego, CA, USA).

The next data set concerns hsHexA. Also noted: method as in PMID 17317569. As to conditions: read-out: IC50 against hsHexA; cited from earlier work.
In data set [2] the test system is GH20 and GH84 β-N-acetylhexosaminidases. Also noted: method as in PMID 22280348, PMID 23688083. As to conditions: cited from earlier work.
In data set [3] the target is T1, hsHexB. Also noted: method as in PMID 20187655. The settings on record: cited from earlier work.
A further data set has as its target hsHex. Also noted: method as in PMID 24900704. As to conditions: read-out: Ki against hsHex; cited from earlier work.
A further data set concerns the target T2, hOGA (Homo sapiens, UniProt O60502).
T2 construct: made in house; host or cells: Escherichia coli BL21(DE3)
T2 sequence (O60502 1-916): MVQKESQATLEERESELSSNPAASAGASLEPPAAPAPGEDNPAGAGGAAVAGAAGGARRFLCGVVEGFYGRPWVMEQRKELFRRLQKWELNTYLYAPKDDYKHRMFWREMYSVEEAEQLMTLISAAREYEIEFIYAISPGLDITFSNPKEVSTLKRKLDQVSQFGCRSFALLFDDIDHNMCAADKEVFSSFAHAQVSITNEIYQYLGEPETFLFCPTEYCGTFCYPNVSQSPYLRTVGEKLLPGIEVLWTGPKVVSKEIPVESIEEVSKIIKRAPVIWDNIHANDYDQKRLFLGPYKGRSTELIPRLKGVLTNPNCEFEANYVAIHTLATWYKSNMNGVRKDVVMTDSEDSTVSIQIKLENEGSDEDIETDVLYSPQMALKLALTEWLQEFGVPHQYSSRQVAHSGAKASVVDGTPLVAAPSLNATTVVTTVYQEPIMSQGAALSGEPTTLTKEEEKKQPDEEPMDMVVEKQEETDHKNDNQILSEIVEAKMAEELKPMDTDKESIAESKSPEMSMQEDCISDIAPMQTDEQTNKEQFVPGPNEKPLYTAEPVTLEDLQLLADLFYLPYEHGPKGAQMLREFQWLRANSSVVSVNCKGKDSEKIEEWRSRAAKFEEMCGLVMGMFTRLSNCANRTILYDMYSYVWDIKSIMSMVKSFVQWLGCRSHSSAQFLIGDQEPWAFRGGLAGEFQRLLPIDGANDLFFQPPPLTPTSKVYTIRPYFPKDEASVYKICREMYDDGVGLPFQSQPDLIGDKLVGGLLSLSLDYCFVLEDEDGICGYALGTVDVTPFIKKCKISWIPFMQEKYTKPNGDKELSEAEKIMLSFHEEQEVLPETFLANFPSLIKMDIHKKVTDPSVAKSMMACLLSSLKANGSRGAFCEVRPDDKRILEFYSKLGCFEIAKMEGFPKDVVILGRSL
Briefly: Inhibitory potency assay, end-point, 4-MU-GlcNAc substrate, pH 6.0. Format: biochemical. As to conditions: for Ki: 4-MU-GlcNAc, pH 6.0, 30 °C, 30 min, read-out: Ki against hOGA; for Inhibition potency against hOGA (in words): each compound at 20 µM, Figure 3. On the procedure: as §1, §2

Data set [4] deals with GH20 insect β-N-acetylhexosaminidase OfHex1. Also noted: method as in PMID 25155420. As to conditions: read-out: Ki against OfHex1; cited from earlier work.

Where two headings read alike, the source gives them in different places.

As to “2-[2-[2-[(2-acetamido-β-D-glucopyranosyl)thio]ethylamino]ethyl]-1H-benzo[de] isoquinoline-1,3(2H)-dione [compound 15a]”, on hsHexB [1], the “Inhibition potency against hsHexB (in words)” value is listed as “highest potencies”.

Broadly, the IC50 is the concentration that inhibits the measured activity by half. On to `O=C1c2cccc3cccc(c23)C(=O)N1CCNCCN1C(=O)c2cccc3cccc(c23)C1=O` [M-31850], for which, in the data set on hsHexA, the IC50 is 6 µM.

On to `CC1=N[C@@H]2[C@@H](O)[C@H](O)[C@@H](CO)O[C@@H]2S1` [NAG-thiazoline], for which the “Selectivity between GH20 and GH84 β-N-acetylhexosaminidases” value in data set [2] is “non-selectivity”.

Regarding `CC(=O)N[C@H]1c2nc(CC(=O)O)cn2[C@H](CO)[C@H](O)[C@@H]1O` [Nagstatin], the “Selectivity between GH20 and GH84 β-N-acetylhexosaminidases” value in data set [2] is “non-selectivity”.

Regarding `CC(=O)N[C@H]1/C(=N/OC(=O)Nc2ccccc2)O[C@H](CO)[C@@H](O)[C@@H]1O` [PUGNAc], the “Selectivity between GH20 and GH84 β-N-acetylhexosaminidases” value in data set [2] is given as “non-selectivity”.

In general, Ki refers to a measure of affinity in units of concentration, obtained from inhibition or displacement. `COc1ccc(CN(CCCCCCCN2C[C@H](NC(C)=O)[C@@H](O)[C@H](O)[C@H]2CO)Cc2ccc(OC)cc2)cc1` [compound 4 (5)]: the “Selectivity for hsHexB toward GH84 hOGA” value at hsHexB [3] is on record as 250,000 fold. Also, the Ki at hsHexB [3] (read-out: Ki against hsHexB) is 0.00069 µM.

Take `COc1ccc(CNCCN2C(=O)c3cccc4cccc(c34)C2=O)cc1` [compound 7a (7)]: the Ki on hsHex is 0.63 µM.

Usually melting point stands for the temperature, or range, at which the solid turns liquid. `CC(=O)N[C@@H]1[C@@H](O)[C@H](O)[C@@H](CO)O[C@H]1SCCNCCCN1C(=O)c2cccc3cccc(c23)C1=O` [compound 15b]: the melting point fell in the range of 218 to 220 °C. Moreover, on hsHexB [1] (Dixon plots), the Ki was determined as 30.4 µM. For the same compound, at hOGA (Dixon plots, Figure 4B), the “Type of inhibition of hOGA” value is given as “competitive inhibitors”. Besides, the inhibitory constant (Ki) on hOGA (Dixon plots) turned out to be 3.76 µM. Besides, the “Inhibition potency against hOGA (in words)” value on hOGA is on record as “highest potency”.

`CC(=O)N[C@@H]1[C@@H](O)[C@H](O)[C@@H](CO)O[C@H]1SCCCNCCN1C(=O)c2cccc3cccc(c23)C1=O` [compound 15d] came in with a melting point of 230 to 232 °C. The “Inhibition potency against hsHexB (in words)” value on hsHexB [1] is recorded as “highest potencies”.

As for `CC(=O)N[C@@H]1[C@@H](O)[C@H](O)[C@@H](CO)O[C@H]1SCCCCCNCCN1C(=O)c2cccc3cccc(c23)C1=O` [compound 15g], on hsHexB [1], the “Inhibition potency against hsHexB (in words)” value is recorded as “highest potencies”.

For the compound `CC(=O)N[C@@H]1[C@@H](O)[C@H](O)[C@@H](CO)O[C@H]1SCCCCCCNCCN1C(=O)c2cccc3cccc(c23)C1=O` [compound 15j], the “Type of inhibition of hsHexB” value on hsHexB [1] (Dixon plots, Figure 4A) was “competitive inhibitors”. The inhibition constant Ki at hsHexB [1] (Dixon plots) is 0.91 µM; on hOGA (Dixon plots) it was greater than 100 µM. In addition, the “Inhibition potency against hsHexB (in words)” value at hsHexB [1] was “highest potencies”.

As for `CC(=O)N[C@@H]1[C@@H](O)[C@H](O)[C@@H](CO)O[C@H]1SCCCCCCNCCCN1C(=O)c2cccc3cccc(c23)C1=O` [compound 15k], the “Inhibition potency against hsHexB (in words)” value at hsHexB [1] was “considerably decreased”.

`CC(=O)N[C@@H]1[C@@H](O)[C@H](O)[C@@H](CO)O[C@H]1SCCCCCCNCCCCN1C(=O)c2cccc3cccc(c23)C1=O` [compound 15l]: the “Inhibition potency against hsHexB (in words)” value at hsHexB [1] is recorded as “considerably decreased”.

As for `CC(=O)N[C@@H]1[C@@H](O)[C@H](O)[C@@H](CO)O[C@H]1SCCCCS[C@@H]1O[C@H](CO)[C@@H](O)[C@H](O)[C@H]1NC(C)=O` [compound 17, 1,4-bis[(2-acetamido-2-deoxy-β-D-glucopyranosyl)thio] butane], the melting point was in the range of 236 to 238 °C. In addition, at hsHexB [1], the “Inhibition potency against hsHexB (in words)” value was “hardly showed activity”. The “Inhibition potency against hOGA (in words)” value at hOGA is “hardly showed activity”.

With `Cc1nnc(CNCCN2C(=O)c3cccc4cccc(c34)C2=O)s1` [compound Q1], in data set [4], the Ki is 4.28 µM.

(Values after PMC6009855, “Design and synthesis of naphthalimide group-bearing thioglycosides as novel β-N-acetylhexosaminidases inhibitors” (Journal of Enzyme Inhibition and Medicinal Chemistry, 2018).)
